Laboratory results: ChEMBL document CHEMBL3046789, “Effect of s-metolachlor application timing on cabbage tolerance” (Crop Prot, 2007)

How the values were obtained:
Type in all cases: organism-based
[1] = tested on: Brassica oleracea var. capitata; assay: Phyototoxicity against Brassica oleracea var. capitata (cabbage) assessed as crop injury at 2400 g a.i./ha applied 1 to 2 days after transplantation measured on day 28 post-transplantation; settings: in vivo, other
[2] = tested on: Brassica oleracea var. capitata; assay: Phyototoxicity against Brassica oleracea var. capitata (cabbage) assessed as crop injury at 2400 g a.i./ha applied 1 to 2 days after transplantation measured on day 14 post-transplantation; settings: in vivo
[3] = tested on: Brassica oleracea var. capitata; assay: Phyototoxicity against Brassica oleracea var. capitata (cabbage) assessed as crop injury at 2400 g a.i./ha applied 1 to 2 days after transplantation measured on day 7 post-transplantation; settings: in vivo, other
[4] = tested on: Brassica oleracea var. capitata; assay: Phyototoxicity against Brassica oleracea var. capitata (cabbage) assessed as crop injury at 1600 g a.i./ha applied 1 to 2 days after transplantation measured on day 28 post-transplantation; settings: in vivo, other
[5] = tested on: Brassica oleracea var. capitata; assay: Phyototoxicity against Brassica oleracea var. capitata (cabbage) assessed as crop injury at 1600 g a.i./ha applied 1 to 2 days after transplantation measured on day 14 post-transplantation; settings: in vivo
[6] = tested on: Brassica oleracea var. capitata; assay: Phyototoxicity against Brassica oleracea var. capitata (cabbage) assessed as crop injury at 1600 g a.i./ha applied 1 to 2 days after transplantation measured on day 7 post-transplantation; settings: in vivo, other
[7] = tested on: Brassica oleracea var. capitata; assay: Phytotoxicity against Brassica oleracea var. capitata (cabbage) assessed as yield at 2400 g a.i./ha applied 1 to 2 days after transplantation (reference value: 25.9 tons/ha); settings: in vivo, other
[8] = tested on: Brassica oleracea var. capitata; assay: Phytotoxicity against Brassica oleracea var. capitata (cabbage) assessed as yield at 1600 g a.i./ha applied 1 to 2 days after transplantation (reference value: 25.9 tons/ha); settings: in vivo, other
[9] = tested on: Brassica oleracea var. capitata; assay: Phytotoxicity against Brassica oleracea var. capitata (cabbage) assessed as yield at 800 g a.i./ha applied 1 to 2 days after transplantation (reference value: 25.9 tons/ha); settings: in vivo, other
[10] = tested on: Brassica oleracea var. capitata; assay: Phytotoxicity against Brassica oleracea var. capitata (cabbage) assessed as yield at 2400 g a.i./ha applied 1 to 2 days prior to transplantation (reference value: 25.9 tons/ha); settings: in vivo, other
[11] = tested on: Brassica oleracea var. capitata; assay: Phytotoxicity against Brassica oleracea var. capitata (cabbage) assessed as yield at 1600 g a.i./ha applied 1 to 2 days prior to transplantation (reference value: 25.9 tons/ha); settings: in vivo, other
[12] = tested on: Brassica oleracea var. capitata; assay: Phytotoxicity against Brassica oleracea var. capitata (cabbage) assessed as yield at 800 g a.i./ha applied 1 to 2 days prior to transplantation (reference value: 25.9 tons/ha); settings: in vivo, other
[13] = tested on: Brassica oleracea var. capitata; assay: Phytotoxicity against Brassica oleracea var. capitata (cabbage) assessed as yield at 2400 g a.i./ha applied 1 to 2 days prior to transplantation followed by incorporation into soil (reference value: 25.9 tons/ha); settings: in vivo, other
[14] = tested on: Brassica oleracea var. capitata; assay: Phytotoxicity against Brassica oleracea var. capitata (cabbage) assessed as yield at 1600 g a.i./ha applied 1 to 2 days prior to transplantation followed by incorporation into soil (reference value: 25.9 tons/ha); settings: in vivo, other
[15] = tested on: Brassica oleracea var. capitata; assay: Phytotoxicity against Brassica oleracea var. capitata (cabbage) assessed as yield at 800 g a.i./ha applied 1 to 2 days prior to transplantation followed by incorporation into soil (reference value: 25.9 tons/ha); settings: in vivo, other
[16] = tested on: Brassica oleracea var. capitata; assay: Phytotoxicity against Brassica oleracea var. capitata (cabbage) assessed as cabbage head weight at 2400 g a.i/ha applied 1 to 2 days after transplantation (reference value: 2465 g); settings: in vivo, other
[17] = tested on: Brassica oleracea var. capitata; assay: Phytotoxicity against Brassica oleracea var. capitata (cabbage) assessed as cabbage head weight at 1600 g a.i/ha applied 1 to 2 days after transplantation (reference value: 2465 g); settings: in vivo, other
[18] = tested on: Brassica oleracea var. capitata; assay: Phytotoxicity against Brassica oleracea var. capitata (cabbage) assessed as cabbage head weight at 800 g a.i/ha applied 1 to 2 days after transplantation (reference value: 2465 g); settings: in vivo, other
[19] = tested on: Brassica oleracea var. capitata; assay: Phytotoxicity against Brassica oleracea var. capitata (cabbage) assessed as cabbage head weight at 2400 g a.i/ha applied 1 to 2 days prior to transplantation (reference value: 2465 g); settings: in vivo, other
[20] = tested on: Brassica oleracea var. capitata; assay: Phytotoxicity against Brassica oleracea var. capitata (cabbage) assessed as cabbage head weight at 1600 g a.i/ha applied 1 to 2 days prior to transplantation (reference value: 2465 g); settings: in vivo, other
[21] = tested on: Brassica oleracea var. capitata; assay: Phytotoxicity against Brassica oleracea var. capitata (cabbage) assessed as cabbage head weight at 800 g a.i/ha applied 1 to 2 days prior to transplantation (reference value: 2465 g); settings: in vivo
[22] = tested on: Brassica oleracea var. capitata; assay: Phytotoxicity against Brassica oleracea var. capitata (cabbage) assessed as cabbage head weight at 2400 g a.i/ha applied 1 to 2 days prior to transplantation followed by incorporation into soil (reference value: 2465 g); settings: in vivo, other
[23] = tested on: Brassica oleracea var. capitata; assay: Phytotoxicity against Brassica oleracea var. capitata (cabbage) assessed as cabbage head weight at 1600 g a.i/ha applied 1 to 2 days prior to transplantation followed by incorporation into soil (reference value: 2465 g); settings: in vivo, other
[24] = tested on: Brassica oleracea var. capitata; assay: Phytotoxicity against Brassica oleracea var. capitata (cabbage) assessed as cabbage head weight at 800 g a.i/ha applied 1 to 2 days prior to transplantation followed by incorporation into soil (reference value: 2465 g); settings: in vivo, other
[25] = tested on: Brassica oleracea var. capitata; assay: Phytotoxicity against Brassica oleracea var. capitata (cabbage) assessed as decrease in number of marketable cabbage heads at 800 to 2400 g i.a./ha applied 1 to 2 days after transplantation relative to control; settings: in vivo
[26] = tested on: Brassica oleracea var. capitata; assay: Phytotoxicity against Brassica oleracea var. capitata (cabbage) assessed as decrease in number of marketable cabbage heads at 800 to 2400 g i.a./ha applied 1 to 2 days prior to transplantation relative to control; settings: in vivo, other
[27] = tested on: Brassica oleracea var. capitata; assay: Phytotoxicity against Brassica oleracea var. capitata (cabbage) assessed as decrease in number of marketable cabbage heads at 800 to 2400 g i.a./ha applied 1 to 2 days prior to transplantation followed by incorporation into soil relative to control; settings: in vivo, other
[28] = tested on: Brassica oleracea var. capitata; assay: Phyototoxicity against Brassica oleracea var. capitata (cabbage) assessed as crop injury at 800 g a.i./ha applied 1 to 2 days after transplantation measured on day 28 post-transplantation; settings: in vivo, other
[29] = tested on: Brassica oleracea var. capitata; assay: Phyototoxicity against Brassica oleracea var. capitata (cabbage) assessed as crop injury at 800 g a.i./ha applied 1 to 2 days after transplantation measured on day 14 post-transplantation; settings: in vivo
[30] = tested on: Brassica oleracea var. capitata; assay: Phyototoxicity against Brassica oleracea var. capitata (cabbage) assessed as crop injury at 800 g a.i./ha applied 1 to 2 days after transplantation measured on day 7 post-transplantation; settings: in vivo, other
[31] = tested on: Brassica oleracea var. capitata; assay: Phyototoxicity against Brassica oleracea var. capitata (cabbage) assessed as crop injury at 2400 g a.i./ha applied 1 to 2 days prior to transplantation measured on day 28 post-transplantation; settings: in vivo, other
[32] = tested on: Brassica oleracea var. capitata; assay: Phyototoxicity against Brassica oleracea var. capitata (cabbage) assessed as crop injury at 2400 g a.i./ha applied 1 to 2 days prior to transplantation measured on day 14 post-transplantation; settings: in vivo, other
[33] = tested on: Brassica oleracea var. capitata; assay: Phyototoxicity against Brassica oleracea var. capitata (cabbage) assessed as crop injury at 2400 g a.i./ha applied 1 to 2 days prior to transplantation followed by incorporation into soil measured on day 7 post-transplantation; settings: in vivo, other
[34] = tested on: Brassica oleracea var. capitata; assay: Phyototoxicity against Brassica oleracea var. capitata (cabbage) assessed as crop injury at 1600 g a.i./ha applied 1 to 2 days prior to transplantation followed by incorporation into soil measured on day 28 post-transplantation; settings: in vivo, other
[35] = tested on: Brassica oleracea var. capitata; assay: Phyototoxicity against Brassica oleracea var. capitata (cabbage) assessed as crop injury at 1600 g a.i./ha applied 1 to 2 days prior to transplantation followed by incorporation into soil measured on day 14 post-transplantation; settings: in vivo, other
[36] = tested on: Brassica oleracea var. capitata; assay: Phyototoxicity against Brassica oleracea var. capitata (cabbage) assessed as crop injury at 1600 g a.i./ha applied 1 to 2 days prior to transplantation followed by incorporation into soil measured on day 7 post-transplantation; settings: in vivo, other
[37] = tested on: Brassica oleracea var. capitata; assay: Phyototoxicity against Brassica oleracea var. capitata (cabbage) assessed as crop injury at 800 g a.i./ha applied 1 to 2 days prior to transplantation followed by incorporation into soil measured on day 28 post-transplantation; settings: in vivo, other
[38] = tested on: Brassica oleracea var. capitata; assay: Phyototoxicity against Brassica oleracea var. capitata (cabbage) assessed as crop injury at 800 g a.i./ha applied 1 to 2 days prior to transplantation followed by incorporation into soil measured on day 14 post-transplantation; settings: in vivo, other
[39] = tested on: Brassica oleracea var. capitata; assay: Phyototoxicity against Brassica oleracea var. capitata (cabbage) assessed as crop injury at 800 g a.i./ha applied 1 to 2 days prior to transplantation followed by incorporation into soil measured on day 7 post-transplantation; settings: in vivo, other
[40] = tested on: Brassica oleracea var. capitata; assay: Phyototoxicity against Brassica oleracea var. capitata (cabbage) assessed as crop injury at 2400 g a.i./ha applied 1 to 2 days prior to transplantation measured on day 7 post-transplantation; settings: in vivo, other
[41] = tested on: Brassica oleracea var. capitata; assay: Phyototoxicity against Brassica oleracea var. capitata (cabbage) assessed as crop injury at 1600 g a.i./ha applied 1 to 2 days prior to transplantation measured on day 28 post-transplantation; settings: in vivo, other
[42] = tested on: Brassica oleracea var. capitata; assay: Phyototoxicity against Brassica oleracea var. capitata (cabbage) assessed as crop injury at 1600 g a.i./ha applied 1 to 2 days prior to transplantation measured on day 14 post-transplantation; settings: in vivo, other
[43] = tested on: Brassica oleracea var. capitata; assay: Phyototoxicity against Brassica oleracea var. capitata (cabbage) assessed as crop injury at 1600 g a.i./ha applied 1 to 2 days prior to transplantation measured on day 7 post-transplantation; settings: in vivo, other
[44] = tested on: Brassica oleracea var. capitata; assay: Phyototoxicity against Brassica oleracea var. capitata (cabbage) assessed as crop injury at 800 g a.i./ha applied 1 to 2 days prior to transplantation measured on day 28 post-transplantation; settings: in vivo, other
[45] = tested on: Brassica oleracea var. capitata; assay: Phyototoxicity against Brassica oleracea var. capitata (cabbage) assessed as crop injury at 800 g a.i./ha applied 1 to 2 days prior to transplantation measured on day 14 post-transplantation; settings: in vivo, other
[46] = tested on: Brassica oleracea var. capitata; assay: Phyototoxicity against Brassica oleracea var. capitata (cabbage) assessed as crop injury at 800 g a.i./ha applied 1 to 2 days prior to transplantation measured on day 7 post-transplantation; settings: in vivo, other
[47] = tested on: Brassica oleracea var. capitata; assay: Phyototoxicity against Brassica oleracea var. capitata (cabbage) assessed as crop injury at 2400 g a.i./ha applied 1 to 2 days prior to transplantation followed by incorporation into soil measured on day 28 post-transplantation; settings: in vivo, other
[48] = tested on: Brassica oleracea var. capitata; assay: Phyototoxicity against Brassica oleracea var. capitata (cabbage) assessed as crop injury at 2400 g a.i./ha applied 1 to 2 days prior to transplantation followed by incorporation into soil measured on day 14 post-transplantation; settings: in vivo, other

## CCc1cccc(C)c1N(C(=O)CCl)[C@@H](C)COC [S-METOLACHLOR]
[1]
  Activity: 0%
[2]
  Activity: 0%
[3]
  Activity: 0%
[4]
  Activity: 0%
[5]
  Activity: 0%
[6]
  Activity: 2%
[7]
  Crop_yield: 27.7 tons/ha
[8]
  Crop_yield: 26.4 tons/ha
[9]
  Crop_yield: 24.5 tons/ha
[10]
  Crop_yield: 25.4 tons/ha
[11]
  Crop_yield: 27.1 tons/ha
[12]
  Crop_yield: 26.7 tons/ha
[13]
  Crop_yield: 25.7 tons/ha
[14]
  Crop_yield: 23.4 tons/ha
[15]
  Crop_yield: 26.4 tons/ha
[16]
  Activity: 2676 g
[17]
  Activity: 2556 g
[18]
  Activity: 2310 g
[19]
  Activity: 2460 g
[20]
  Activity: 2540 g
[21]
  Activity: 2386 g
[22]
  Activity: 2421 g
[23]
  Activity: 2255 g
[24]
  Activity: 2413 g
[25]
  Activity: Non-toxic
[26]
  Activity: Non-toxic
[27]
  Activity: Non-toxic
[28]
  Activity: 0%
[29]
  Activity: 1%
[30]
  Activity: 3%
[31]
  Activity: 0%
[32]
  Activity: 0%
[33]
  Activity: 1%
[34]
  Activity: 0%
[35]
  Activity: 0%
[36]
  Activity: 3%
[37]
  Activity: 0%
[38]
  Activity: 0%
[39]
  Activity: 2%
[40]
  Activity: 3%
[41]
  Activity: 0%
[42]
  Activity: 1%
[43]
  Activity: 2%
[44]
  Activity: 0%
[45]
  Activity: 0%
[46]
  Activity: 2%
[47]
  Activity: 0%
[48]
  Activity: 0%
